Values after ≈ are worked out from the molar mass of the structure shown. Bridge positions count the residues as written; N and C are the ends. Square brackets hold non-standard residues; d marks the D form. Ends that are not written are not given here. Peptide text beside a SMILES is read from it. I, II: the chains in the order shown. Ahx = NCCCCCC(=O)O
Legend:
[1] = tested on: Klebsiella pneumoniae ATCC 700603 (resistant); settings: K. pneumoniae ATCC 700603, resistant strain; MIC50 previously obtained with the same assay (M7-A7); ref Leon-Calvijo et al., 2015; cited from earlier work
Text: Table 6 Therapeutic Index values for the RRWQWR-based peptides against the ATCC strains of HCAI-relevant bacteria. | column: Gram negative / MIC (μM) / ^l700603-^fR

[2] = tested on: P. aeruginosa ATCC-10145 (sensitive); experiment: Scanning electron microscopy of treated bacteria; format: cell-based, Pseudomonas aeruginosa; settings: 3 × MIC50, 2 h, 37°C
Description: (§1) We observed bacterial morphology by SEM. The E. faecalis and P. aeruginosa strains were grown to mid-logarithmic phase, and adjusted spectrophotometrically to a McFarland standard of 0.5 (corresponding to ~1 × 10^8 CFU/mL). Subsequently, 1 mL of bacterial suspension was distributed into three tubes: one tube was treated with (RRWQWR)2KAhx at 3 × the MIC50; another tube, with (RRWQWR)4K2Ahx2C2 at the same concentration; and the third tube was left untreated, as a control. The samples were incubated aerobically at 37°C for 2 h, and the bacterial suspensions were centrifuged at 1,459 × g for 3 min and then, washed twice with Millonig's Phosphate Buffer (0.10 M, pH 7.4). For SEM, each sample was fixed with 1 mL of 2.5% glutaraldehyde at 4°C for 2 h. The fixed samples were dehydrated in an ethanol gradient (50, 70, 80, 90, and 100%) for 20 min and then, centrifuged at 1,459 × g for 10 min. The bacterial pellet was resuspended in 100% ethyl alcohol and air-dried. Finally, the slides were taped onto stubs, coated with gold using a Quorum Q150R sputter coater, and observed with an FEI Quanta 200-r microscope.
(§2) We used SEM to study the morphology of bacterial cells before and after treatment with either branched peptide (dimeric and tetrameric). To this end, each strain of E. faecalis and P. aeruginosa was first studied by SEM; then, independently treated in the exponential phase with either peptide at 3 × the corresponding MIC50 value for 2 h (except for the resistant E. faecalis strain, for which a peptide concentration of 200 μM was used); and finally, studied by SEM again.

[3] = tested on: P. aeruginosa ATCC-27853 (resistant); experiment: Scanning electron microscopy of treated bacteria; format: cell-based, Pseudomonas aeruginosa; settings: 3 × MIC50, 2 h, 37°C
Description: as §1, §2

[4] = tested on: Gram-positive ATCC strains (E. faecalis 29212, S. aureus 25923 and 33591); experiment: Therapeutic index, Gram-positive ATCC strains; settings: for Fold (GM peptide / GM tetrameric peptide): Gram-positive ATCC strains; for Gm, geometric mean of MIC50 values: Gram-positive ATCC strains 29212, 25923, 33591
Text: We determined the therapeutic index of each peptide, which we defined as the ratio of Maximum Hemolytic Activity (Hmax) to MIC50 (Hmax/MIC50).
The therapeutic index (TI) is a ratio of the toxic dose of a substance to its therapeutically-active dose and can be calculated different ways (e.g., LD50/ED50). Here, we calculated a TI value for each peptide against all the Gram-positive or the Gram-negative ATCC strains, by dividing its Hmax by its MIC50 for the given group of strains. […] Additionally, to make our quantitative analysis more robust [geometric mean (Khachatryan et al., [2017]) and fold values], we have included MIC50 values for these peptides against S. aureus and K. pneumoniae that we previously obtained using the same assay, the M7-A7 method of the National Committee for Clinical Laboratory Standards (Leon-Calvijo et al., [2015]).

[5] = tested on: E. faecalis ATCC-29212 (sensitive); experiment: Scanning electron microscopy of treated bacteria; format: cell-based, Enterococcus faecalis; settings: 3 × MIC50, 2 h, 37°C
Description: as §1
We used SEM to study the morphology of bacterial cells before and after treatment with either branched peptide (dimeric and tetrameric). […]

[6] = tested on: Staphylococcus aureus ATCC 25923 (sensitive); settings: S. aureus ATCC 25923, sensitive strain; MIC50 previously obtained with the same assay (M7-A7); ref Leon-Calvijo et al., 2015; cited from earlier work
Text: Table 6 Therapeutic Index values for the RRWQWR-based peptides against the ATCC strains of HCAI-relevant bacteria. | column: Gram positive / MIC (μM) / ^d25923-^cS

[7] = tested on: Klebsiella pneumonia ATCC 13883 (sensitive); settings: K. pneumoniae ATCC 13883, sensitive strain; MIC50 previously obtained with the same assay (M7-A7); ref Leon-Calvijo et al., 2015; cited from earlier work
Text: Table 6 Therapeutic Index values for the RRWQWR-based peptides against the ATCC strains of HCAI-relevant bacteria. | column: Gram negative / MIC (μM) / ^k13883-^cS

[8] = tested on: Staphylococcus aureus ATCC 33591 (resistant); settings: S. aureus ATCC 33591, resistant strain; MIC50 previously obtained with the same assay (M7-A7); ref Leon-Calvijo et al., 2015; cited from earlier work
Text: Table 6 Therapeutic Index values for the RRWQWR-based peptides against the ATCC strains of HCAI-relevant bacteria. | column: Gram positive / MIC (μM) / ^e33591-^fR

ATCC reference strains = experiment: Antibacterial activity against the ATCC reference strains, overall; format: cell-based; settings: against the ATCC reference strains of E. faecalis and P. aeruginosa, all strains together
Description: We screened all five peptides against the ATCC reference strains and the clinical isolates according to Method M7-A7 of the National Committee for Clinical Laboratory Standards (CLSI, [2007]). The MIC50 and MBC values were determined using a broth microdilution and growth inhibition method previously reported by Leon-Calvijo et al. ([2015]), with some modifications (Wiegand et al., [2008]). Briefly, the MIC50 experiments comprised a liquid-inhibition growth assay in a sterile, untreated, 96-well flat-bottom tissue culture plate. […] The turbidity of the cultures was measured and adjusted spectrophotometrically to a McFarland standard of 0.5, and then diluted to a final concentration of 5 × 10^7 colony forming units (CFU) per well. […] Each concentration was evaluated in duplicate and each assay was performed in triplicate.
Wells containing Mueller Hilton broth with bacterial inoculum only served as bacterial-growth controls. […] The microplate was incubated for 24 h at 37°C, and growth inhibition was measured by monitoring the optical density at 620 nm (OD620). […]
To determine the MBC, an aliquot from each well of the MIC50 assay was spread onto Mueller Hilton agar. After 18 h at 37°C, the concentration that inhibited bacterial growth was determined. […]

| Compound | MIC [1] | Morphology of bacterial cells by SEM after treatment [2] | Morphology of bacterial cells by SEM after treatment [3] | Fold (GM peptide / GM tetrameric peptide) [4] | Gm, geometric mean of MIC50 values [4] | Morphology of bacterial cells by SEM after treatment [5] | MIC [6] | MIC [7] | MIC [8] | MIC50 (ATCC reference strains) |
| --- | --- | --- | --- | --- | --- | --- | --- | --- | --- | --- |
| N=C(N)NCCC[C@H](NC(=O)[C@H](Cc1c[nH]c2ccccc12)NC(=O)[C@H](CCC(N)=O)NC(=O)[C@H](Cc1c[nH]c2ccccc12)NC(=O)[C@H](CCCNC(=N)N)NC(=O)[C@@H](N)CCCNC(=N)N)C(=O)NCCCC[C@H](NC(=O)[C@H](CCCNC(=N)N)NC(=O)[C@H](Cc1c[nH]c2ccccc12)NC(=O)[C@H](CCC(N)=O)NC(=O)[C@H](Cc1c[nH]c2ccccc12)NC(=O)[C@H](CCCNC(=N)N)NC(=O)[C@@H](N)CCCNC(=N)N)C(=O)NCCCCCC(N)=O [LfcinB (20–25)2] (I: H-RRWQWRK[Ahx]-NH2 / II: H-RRWQWR; amide I:7-II:C; N-terminus assumed) | 7.3 µM (≈ 16 µg/mL) | clear reduction in population and caused morphological alterations | marked drop in population and severe morphological alterations | 3.1 | 9.8 µM | random organization with morphological alterations | 3.0 µM (≈ 6.59 µg/mL) | 9.0 µM (≈ 19.8 µg/mL) | 24.1 µM (≈ 52.9 µg/mL) |  |
| (RRWQWR)4K2Ahx2C2 (disulfide) [LfcinB (20–25)4, branched tetrameric peptide (RRWQWR)4K2Ahx2C2, two dimers linked by a cysteine disulfide bridge] | 6.2 µM | very heterogeneous population and to alterations in the cell surface | disintegrated and irregularly-shaped mucoid cells | 1.0 | 3.1 µM | population decline, cell-size heterogeneity and cell-surface alterations in the form of protrusions | 1.7 µM | 12.0 µM | 5.9 µM |  |
| RRWQWR-NH2 [LfcinB (20–25), reference compound] |  |  |  |  |  |  |  |  |  | > 200 µM |

Reference: PMC5840262, “Design, Synthesis and Evaluation of Branched RRWQWR-Based Peptides as Antibacterial Agents Against Clinically Relevant Gram-Positive and Gram-Negative Pathogens” (Frontiers in Microbiology, 2018)
